Experiments:
[1] = Dual-Cell β-Catenin Reporter Assay; format: cell-based, Mouse; conditions: Mus musculus, luciferase signal reduced to 50% of DMSO control
Procedure: (§1) Dual-Cell β-Catenin Reporter Assay
(§2) Mouse L cells transfected to constitutively produce biologically active murine Wnt-3a, referred to as L-Wnt cells, were purchased from the American Type Culture Collection, ATCC, Manassas, VA (ATCC). These cells were cultured in DMEM supplemented with 10% FCS (Gibco/Invitrogen, Carlsbad, CA), 1% geneticin and 1% sodium pyruvate (Sigma) at 37° C. with 5% CO2. The cells were seeded into 96 well plates and treated with serial dilutions of compound diluted to 0.1% DMSO concentration. After 24 hours, cell supernatants were transferred to a 96 well plate previously seeded with Leading Light® Wnt Reporter Cells, stably transfected with a luciferase gene under control of Wnt pathway response elements. After a further 24 hours, cells are treated with One-glo luciferase assay system (Promega, Madison, WI) and the luminescent signal read by envision. The IC50 of the compound is determined as the concentration that reduces the induced luciferase signal to 50% of the DMSO control.
(§3) The category “+” refers to compounds with an IC50 of >100 μM. The category “++” refers to compounds with an IC50 of 5 to 100 μM. The category “+++” refers to compounds with an IC50<5 μM.

[2] = system: L-Wnt cells (murine Wnt-3a) / Leading Light Wnt Reporter Cells (luciferase under control of Wnt pathway response elements); experiment: Dual-Cell β-Catenin Reporter Assay; format: cell-based, Mouse; conditions: category of IC50; luciferase signal reduced to 50% of DMSO control
Procedure: as §1, §2, §3

IC50 ([1]; category of IC50) [nM]	IC50 [1] [nM]	IC50 [2] [nM]	Structure (SMILES)
< 5	0.05		Cc1c(-c2ccnc(C(F)(F)F)c2)ncn1CC(=O)Nc1ccc(-c2cnccn2)cn1 [compound 74]
< 5	0.61		Cc1cc(-c2nn(CC(=O)Nc3ccc(-c4cnccn4)cn3)cc2C)ccn1 [compound 75]
< 5	0.05		Cc1c(-c2ccnc(C(F)(F)F)c2)ncn1CC(=O)Nc1ccc(-c2ccc(C#N)cc2)cn1 [compound 107]
< 5	0.91		CC(C)(C)OC(=O)N1CCN(c2ccc(NC(=O)Cn3cnc(-c4ccnc(C(F)(F)F)c4)c3)nc2)CC1 [compound 6]
< 5	0.14		Cc1nn(CC(=O)Nc2ccc(-c3ccc(C#N)cc3)cn2)c(C)c1-c1ccnc(C(F)(F)F)c1 [compound 54]
		< 5	Cc1nn(CC(=O)Nc2ccc(-c3ccnc(C#N)c3)cn2)c(C)c1-c1ccnc(C(F)(F)F)c1 [compound 71]
		< 5	Cc1nn(CC(=O)Nc2ccc(-c3ccc(C#N)nc3)cn2)c(C)c1-c1ccnc(C(F)(F)F)c1 [compound 66]
		< 5	Cc1nc(-c2ccnc(C(F)(F)F)c2)cn1CC(=O)Nc1ccc(-c2cnccn2)cn1 [compound 68]
		5 to 100	Cc1nn(CC(=O)Nc2ccc(-c3cnccn3)cn2)c(C)c1-c1cnn(C2CC2)c1 [compound 58]
		5 to 100	O=C(Cn1cc(-c2cnsc2)cn1)Nc1ccc(-c2cnccn2)cn1 [compound 27]
		5 to 100	O=C(Cn1cc(-c2cc(C(F)(F)F)ncn2)cn1)Nc1ccc(-c2cnccn2)cn1 [compound 41]
		5 to 100	Cc1nn(CC(=O)Nc2ccc(-c3cnccn3)cn2)c(C)c1-c1ccnn1C [compound 50]
5 to 100	12.2		Cc1cc(-c2cnn(CC(=O)Nc3ccc(-c4cnccn4)cn3)c2)ccn1 [compound 3]
		5 to 100	Cc1cc(-c2c(C)nn(CC(=O)Nc3ccc(-c4cnccn4)cn3)c2C)cnn1 [compound 51]
		< 5	Cc1nn(CC(=O)Nc2ccc(-c3cnccn3)cn2)cc1-c1ccnc(C(F)(F)F)c1 [compound 56]
		< 5	Cc1nn(CC(=O)Nc2ccc(-c3ccnn3C)cn2)c(C)c1-c1ccnc(C(F)(F)F)c1 [compound 55]
		< 5	O=C(Cn1cc(-c2ccnc(C(F)(F)F)c2)cn1)Nc1ccc(-c2cnccn2)cn1 [compound 17]
		5 to 100	Cc1nn(CC(=O)Nc2ccc(-c3cnccn3)cn2)c(C)c1-c1ccnc(N(C)C)c1 [compound 100]
		5 to 100	Cc1nn(CC(=O)Nc2ccc(-c3cnccn3)cn2)c(C)c1-c1ccnc(N)c1 [compound 79]
		< 5	Cc1nn(CC(=O)Nc2ccc(-c3cnccn3)cn2)c(C)c1C1=CC(C)OC(C)C1 (stereo not shown) [compound 82]
		5 to 100	Cc1ncsc1-c1cnn(CC(=O)Nc2ccc(-c3cnccn3)cn2)c1 [compound 25]
		< 5	O=C(Cn1cc(-c2ccnc(C(F)F)c2)cn1)Nc1ccc(-c2cnccn2)cn1 [compound 21]
